Data taken from publication PMC4710522, “A Novel Triazolopyridine-Based Spleen Tyrosine Kinase Inhibitor That Arrests Joint Inflammation” (PLoS ONE, 2016).

Key:
Assay in all cases: SelectScreen kinase assay
Type in all cases: biochemical
CK1-alpha1_h = target: T1, CK1-alpha1_h (Homo sapiens, UniProt P48729); details: KM ATP, read-out: % control
T1 construct: purchased Life Technologies (Invitrogen) SelectScreen, Z'-LYTE / Adapta
In short: (§1)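 Z'-Lyte or Adapta format; compound fixed at 3 µM; ATP at KM, 10 µM or 100 µM as indicated; read-out % control relative to uninhibited DMSO wells.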

PhK-gamma2_h = target: T2, PhK-gamma2_h (Homo sapiens, UniProt P15735); details: KM ATP, read-out: % control
T2 construct: purchased Life Technologies (Invitrogen) SelectScreen, Z'-LYTE / Adapta
In short: as §1

PAK7_h = target: T3, PAK7_h (Homo sapiens, UniProt Q9P286); details: KM ATP, read-out: % control
T3 construct: purchased Life Technologies (Invitrogen) SelectScreen, Z'-LYTE / Adapta
In short: as §1

JNK2-alpha2_h = target: T4, JNK2-alpha2_h (Homo sapiens, UniProt P45984); details: 100 µM ATP, read-out: % control
T4 construct: purchased Life Technologies (Invitrogen) SelectScreen, Z'-LYTE / Adapta
In short: as §1

EphA4_h = target: T5, EphA4_h (Homo sapiens, UniProt P54764); details: KM ATP, read-out: % control
T5 construct: purchased Life Technologies (Invitrogen) SelectScreen, Z'-LYTE / Adapta
In short: as §1

BRAF V599E = target: T6, BRAF V599E (Homo sapiens, UniProt P15056, V600E); details: 100 µM ATP, read-out: % control
T6 construct: purchased Life Technologies (Invitrogen) SelectScreen, Z'-LYTE / Adapta
In short: as §1

Yes_h = target: T7, Yes_h (Homo sapiens, UniProt P07947); details: KM ATP, read-out: % control
T7 construct: purchased Life Technologies (Invitrogen) SelectScreen, Z'-LYTE / Adapta
In short: as §1

Rsk3_h = target: T8, Rsk3_h (Homo sapiens, UniProt Q15349); details: KM ATP, read-out: % control
T8 construct: purchased Life Technologies (Invitrogen) SelectScreen, Z'-LYTE / Adapta
In short: as §1

Rsk4_h = target: T9, Rsk4_h (Homo sapiens, UniProt Q9UK32); details: KM ATP, read-out: % control
T9 construct: purchased Life Technologies (Invitrogen) SelectScreen, Z'-LYTE / Adapta
In short: as §1

Axl_h = target: T10, Axl_h (Homo sapiens, UniProt P30530); details: KM ATP, read-out: % control
T10 construct: purchased Life Technologies (Invitrogen) SelectScreen, Z'-LYTE / Adapta
In short: as §1

PAK6_h = target: T11, PAK6_h (Homo sapiens, UniProt Q9NQU5); details: KM ATP, read-out: % control
T11 construct: purchased Life Technologies (Invitrogen) SelectScreen, Z'-LYTE / Adapta
In short: as §1

EphA1_h = target: T12, EphA1_h (Homo sapiens, UniProt P21709); details: KM ATP, read-out: % control
T12 construct: purchased Life Technologies (Invitrogen) SelectScreen, Z'-LYTE / Adapta
In short: as §1

IKK-beta_h = target: T13, IKK-beta_h (Homo sapiens, UniProt O14920); details: KM ATP, read-out: % control
T13 construct: purchased Life Technologies (Invitrogen) SelectScreen, Z'-LYTE / Adapta
In short: as §1

Hck_h = target: T14, Hck_h (Homo sapiens, UniProt P08631); details: KM ATP, read-out: % control
T14 construct: purchased Life Technologies (Invitrogen) SelectScreen, Z'-LYTE / Adapta
In short: as §1

FAK_h = target: T15, FAK_h (Homo sapiens, UniProt Q05397); details: KM ATP, read-out: % control
T15 construct: purchased Life Technologies (Invitrogen) SelectScreen, Z'-LYTE / Adapta
In short: as §1

Aurora-A_h = target: T16, Aurora-A_h (Homo sapiens, UniProt O14965); details: KM ATP, read-out: % control
T16 construct: purchased Life Technologies (Invitrogen) SelectScreen, Z'-LYTE / Adapta
In short: as §1

Ltk_h = target: T17, Ltk_h (Homo sapiens, UniProt P29376); details: KM ATP, read-out: % control
T17 construct: purchased Life Technologies (Invitrogen) SelectScreen, Z'-LYTE / Adapta
In short: as §1

IRAK1_h = target: T18, IRAK1_h (Homo sapiens, UniProt P51617); details: KM ATP, read-out: % control
T18 construct: purchased Life Technologies (Invitrogen) SelectScreen, Z'-LYTE / Adapta
In short: as §1

Gck_h = target: T19, Gck_h (Homo sapiens, UniProt Q12851); details: KM ATP, read-out: % control
T19 construct: purchased Life Technologies (Invitrogen) SelectScreen, Z'-LYTE / Adapta
In short: as §1

PAK3_h = target: T20, PAK3_h (Homo sapiens, UniProt O75914); details: KM ATP, read-out: % control
T20 construct: purchased Life Technologies (Invitrogen) SelectScreen, Z'-LYTE / Adapta
In short: as §1

LYN-A_h = LYN-A_h (Homo sapiens, UniProt P07948)
In short: as §1

BRK_h = target: T21, BRK_h (Homo sapiens, UniProt Q13882); details: KM ATP, read-out: % control
T21 construct: purchased Life Technologies (Invitrogen) SelectScreen, Z'-LYTE / Adapta
In short: as §1

CAMK1_h = target: T22, CAMK1_h (Homo sapiens, UniProt Q14012); details: 10 µM ATP, read-out: % control
T22 construct: purchased Life Technologies (Invitrogen) SelectScreen, Z'-LYTE / Adapta
In short: as §1

Hgk_h = target: T23, Hgk_h (Homo sapiens, UniProt O95819); details: KM ATP, read-out: % control
T23 construct: purchased Life Technologies (Invitrogen) SelectScreen, Z'-LYTE / Adapta
In short: as §1

IKK1_h = target: T24, IKK1_h (Homo sapiens, UniProt O15111); details: KM ATP, read-out: % control
T24 construct: purchased Life Technologies (Invitrogen) SelectScreen, Z'-LYTE / Adapta
In short: as §1

JAK2-JH1-JH2_V617F_h = target: T25, JAK2-JH1-JH2_V617F_h (Homo sapiens, UniProt O60674, V617F); details: KM ATP, read-out: % control
T25 construct: purchased Life Technologies (Invitrogen) SelectScreen, Z'-LYTE / Adapta
In short: as §1

Plk3_h = target: T26, Plk3_h (Homo sapiens, UniProt Q9H4B4); details: KM ATP, read-out: % control
T26 construct: purchased Life Technologies (Invitrogen) SelectScreen, Z'-LYTE / Adapta
In short: as §1

MuSK_h = target: T27, MuSK_h (Homo sapiens, UniProt O15146); details: KM ATP, read-out: % control
T27 construct: purchased Life Technologies (Invitrogen) SelectScreen, Z'-LYTE / Adapta
In short: as §1

EphB1_h = target: T28, EphB1_h (Homo sapiens, UniProt P54762); details: KM ATP, read-out: % control
T28 construct: purchased Life Technologies (Invitrogen) SelectScreen, Z'-LYTE / Adapta
In short: as §1

PKC-delta_h = target: T29, PKC-delta_h (Homo sapiens, UniProt Q05655); details: KM ATP, read-out: % control
T29 construct: purchased Life Technologies (Invitrogen) SelectScreen, Z'-LYTE / Adapta
In short: as §1

MATK_h = target: T30, MATK_h (Homo sapiens, UniProt P42679); details: KM ATP, read-out: % control
T30 construct: purchased Life Technologies (Invitrogen) SelectScreen, Z'-LYTE / Adapta
In short: as §1

EGFR_L858R_h = target: T31, EGFR_L858R_h (Homo sapiens, UniProt P00533, L858R); details: KM ATP, read-out: % control
T31 construct: purchased Life Technologies (Invitrogen) SelectScreen, Z'-LYTE / Adapta
In short: as §1

Ron_h = target: T32, Ron_h (Homo sapiens, UniProt Q04912); details: KM ATP, read-out: % control
T32 construct: purchased Life Technologies (Invitrogen) SelectScreen, Z'-LYTE / Adapta
In short: as §1

EphB4_h = target: T33, EphB4_h (Homo sapiens, UniProt P54760); details: KM ATP, read-out: % control
T33 construct: purchased Life Technologies (Invitrogen) SelectScreen, Z'-LYTE / Adapta
In short: as §1

Chain of LYN-A_h (P07948 whole entry): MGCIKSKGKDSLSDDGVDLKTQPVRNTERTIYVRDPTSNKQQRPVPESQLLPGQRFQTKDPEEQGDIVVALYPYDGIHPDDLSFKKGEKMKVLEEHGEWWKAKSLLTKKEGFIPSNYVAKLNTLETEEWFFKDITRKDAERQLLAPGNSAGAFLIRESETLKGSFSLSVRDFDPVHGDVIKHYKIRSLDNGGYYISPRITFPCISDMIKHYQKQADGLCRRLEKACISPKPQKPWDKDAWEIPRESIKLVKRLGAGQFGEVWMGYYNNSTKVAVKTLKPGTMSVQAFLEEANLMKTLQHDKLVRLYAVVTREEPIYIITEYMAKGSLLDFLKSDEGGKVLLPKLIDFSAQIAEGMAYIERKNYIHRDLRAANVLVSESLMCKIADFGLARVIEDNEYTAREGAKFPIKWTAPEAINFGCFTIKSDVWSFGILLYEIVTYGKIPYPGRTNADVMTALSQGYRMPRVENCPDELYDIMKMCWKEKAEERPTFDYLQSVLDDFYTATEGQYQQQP
T13 sequence (O14920 whole entry): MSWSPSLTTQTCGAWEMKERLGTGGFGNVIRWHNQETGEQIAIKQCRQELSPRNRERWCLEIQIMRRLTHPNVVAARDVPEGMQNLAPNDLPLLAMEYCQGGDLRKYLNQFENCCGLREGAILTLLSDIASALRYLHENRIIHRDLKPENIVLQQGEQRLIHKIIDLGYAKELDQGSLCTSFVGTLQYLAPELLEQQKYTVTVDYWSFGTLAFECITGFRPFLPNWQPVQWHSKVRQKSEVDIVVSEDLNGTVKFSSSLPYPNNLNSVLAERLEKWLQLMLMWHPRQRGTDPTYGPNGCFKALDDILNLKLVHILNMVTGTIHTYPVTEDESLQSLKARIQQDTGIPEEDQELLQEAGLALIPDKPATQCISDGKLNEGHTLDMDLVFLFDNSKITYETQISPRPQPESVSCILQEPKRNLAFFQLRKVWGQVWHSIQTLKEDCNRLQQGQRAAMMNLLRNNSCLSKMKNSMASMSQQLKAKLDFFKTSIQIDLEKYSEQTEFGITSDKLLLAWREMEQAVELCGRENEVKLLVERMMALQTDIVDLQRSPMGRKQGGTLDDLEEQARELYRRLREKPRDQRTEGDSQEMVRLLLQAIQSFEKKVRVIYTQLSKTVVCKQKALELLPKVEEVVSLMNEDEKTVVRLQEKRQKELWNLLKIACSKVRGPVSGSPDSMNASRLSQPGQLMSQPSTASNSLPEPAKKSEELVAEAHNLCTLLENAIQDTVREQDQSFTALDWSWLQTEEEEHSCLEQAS
T9 sequence (Q9UK32 whole entry): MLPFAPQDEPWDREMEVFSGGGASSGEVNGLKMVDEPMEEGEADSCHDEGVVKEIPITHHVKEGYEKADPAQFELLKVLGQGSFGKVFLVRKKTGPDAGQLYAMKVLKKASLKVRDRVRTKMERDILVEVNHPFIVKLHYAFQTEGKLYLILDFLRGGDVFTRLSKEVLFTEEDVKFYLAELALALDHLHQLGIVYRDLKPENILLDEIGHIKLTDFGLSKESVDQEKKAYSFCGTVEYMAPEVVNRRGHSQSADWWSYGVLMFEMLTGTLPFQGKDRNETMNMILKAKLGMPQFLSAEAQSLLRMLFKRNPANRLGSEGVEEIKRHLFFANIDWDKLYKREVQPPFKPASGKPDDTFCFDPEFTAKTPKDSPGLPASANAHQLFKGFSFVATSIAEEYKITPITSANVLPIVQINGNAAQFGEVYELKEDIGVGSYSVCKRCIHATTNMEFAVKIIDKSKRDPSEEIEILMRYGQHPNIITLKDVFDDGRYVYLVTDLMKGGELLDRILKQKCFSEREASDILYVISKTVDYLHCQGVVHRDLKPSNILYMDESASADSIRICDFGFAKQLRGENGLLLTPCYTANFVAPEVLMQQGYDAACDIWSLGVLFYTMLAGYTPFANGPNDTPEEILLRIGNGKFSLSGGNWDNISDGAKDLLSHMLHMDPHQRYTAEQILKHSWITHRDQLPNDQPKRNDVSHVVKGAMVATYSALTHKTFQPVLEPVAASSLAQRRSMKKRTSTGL
T24 sequence (O15111 whole entry): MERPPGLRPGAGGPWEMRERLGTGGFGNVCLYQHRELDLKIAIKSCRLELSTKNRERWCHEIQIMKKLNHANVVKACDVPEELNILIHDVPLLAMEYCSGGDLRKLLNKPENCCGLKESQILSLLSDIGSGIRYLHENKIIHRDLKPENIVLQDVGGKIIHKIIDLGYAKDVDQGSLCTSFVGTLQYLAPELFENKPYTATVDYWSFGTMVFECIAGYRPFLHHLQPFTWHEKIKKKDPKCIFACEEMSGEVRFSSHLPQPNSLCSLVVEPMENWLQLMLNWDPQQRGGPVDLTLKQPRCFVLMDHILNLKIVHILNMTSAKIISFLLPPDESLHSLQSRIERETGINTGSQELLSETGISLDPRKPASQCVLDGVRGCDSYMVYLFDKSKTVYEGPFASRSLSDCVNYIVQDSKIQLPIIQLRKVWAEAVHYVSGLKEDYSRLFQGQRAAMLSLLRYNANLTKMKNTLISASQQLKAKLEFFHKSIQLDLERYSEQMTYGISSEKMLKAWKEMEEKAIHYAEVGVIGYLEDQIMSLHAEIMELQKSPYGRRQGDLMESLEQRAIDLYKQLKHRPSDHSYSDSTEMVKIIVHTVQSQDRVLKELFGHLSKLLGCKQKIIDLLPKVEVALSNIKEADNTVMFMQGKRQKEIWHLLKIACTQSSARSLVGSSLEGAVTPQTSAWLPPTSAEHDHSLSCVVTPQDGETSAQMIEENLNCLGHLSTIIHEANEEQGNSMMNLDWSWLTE
T3 sequence (Q9P286 whole entry): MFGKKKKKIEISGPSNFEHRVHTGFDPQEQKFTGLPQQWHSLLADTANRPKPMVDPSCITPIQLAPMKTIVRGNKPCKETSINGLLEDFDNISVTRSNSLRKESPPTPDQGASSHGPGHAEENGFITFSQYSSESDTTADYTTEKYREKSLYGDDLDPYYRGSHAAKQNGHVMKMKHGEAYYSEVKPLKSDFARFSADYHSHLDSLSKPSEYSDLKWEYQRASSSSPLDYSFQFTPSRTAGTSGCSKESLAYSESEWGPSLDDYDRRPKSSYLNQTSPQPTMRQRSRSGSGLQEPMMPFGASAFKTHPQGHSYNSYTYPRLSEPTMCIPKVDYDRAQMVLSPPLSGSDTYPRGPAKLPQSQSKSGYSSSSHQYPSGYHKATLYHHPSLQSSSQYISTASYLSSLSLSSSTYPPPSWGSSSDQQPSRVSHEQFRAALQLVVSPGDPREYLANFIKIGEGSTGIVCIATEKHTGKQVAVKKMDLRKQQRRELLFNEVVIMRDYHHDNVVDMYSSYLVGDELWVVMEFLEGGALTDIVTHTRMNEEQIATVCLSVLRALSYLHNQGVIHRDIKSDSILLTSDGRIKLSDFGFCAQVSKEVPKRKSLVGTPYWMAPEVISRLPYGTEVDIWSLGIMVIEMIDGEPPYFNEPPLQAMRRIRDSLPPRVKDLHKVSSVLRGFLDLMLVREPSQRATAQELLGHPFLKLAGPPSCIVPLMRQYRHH
T16 sequence (O14965 whole entry): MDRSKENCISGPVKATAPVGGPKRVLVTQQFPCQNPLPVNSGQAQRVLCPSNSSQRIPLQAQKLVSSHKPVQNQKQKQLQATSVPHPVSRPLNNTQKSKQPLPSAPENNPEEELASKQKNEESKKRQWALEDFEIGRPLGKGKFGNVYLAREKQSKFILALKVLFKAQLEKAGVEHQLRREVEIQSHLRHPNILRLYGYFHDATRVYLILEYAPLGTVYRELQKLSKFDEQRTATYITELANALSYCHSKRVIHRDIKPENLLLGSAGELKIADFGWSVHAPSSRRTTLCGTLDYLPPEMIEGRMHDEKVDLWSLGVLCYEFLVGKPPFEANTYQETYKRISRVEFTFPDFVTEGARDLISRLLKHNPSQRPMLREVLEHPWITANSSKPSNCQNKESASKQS
T2 sequence (P15735 whole entry): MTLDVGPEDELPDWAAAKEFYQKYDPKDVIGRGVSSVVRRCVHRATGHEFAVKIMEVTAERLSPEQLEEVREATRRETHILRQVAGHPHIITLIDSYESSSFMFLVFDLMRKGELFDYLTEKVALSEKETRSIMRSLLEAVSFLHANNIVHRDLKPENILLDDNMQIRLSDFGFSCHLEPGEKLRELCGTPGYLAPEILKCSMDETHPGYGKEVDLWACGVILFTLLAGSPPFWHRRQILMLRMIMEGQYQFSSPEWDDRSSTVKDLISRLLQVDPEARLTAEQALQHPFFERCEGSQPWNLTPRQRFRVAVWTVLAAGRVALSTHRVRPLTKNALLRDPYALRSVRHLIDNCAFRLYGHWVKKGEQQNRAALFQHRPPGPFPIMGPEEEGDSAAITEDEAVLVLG
T20 sequence (O75914 whole entry): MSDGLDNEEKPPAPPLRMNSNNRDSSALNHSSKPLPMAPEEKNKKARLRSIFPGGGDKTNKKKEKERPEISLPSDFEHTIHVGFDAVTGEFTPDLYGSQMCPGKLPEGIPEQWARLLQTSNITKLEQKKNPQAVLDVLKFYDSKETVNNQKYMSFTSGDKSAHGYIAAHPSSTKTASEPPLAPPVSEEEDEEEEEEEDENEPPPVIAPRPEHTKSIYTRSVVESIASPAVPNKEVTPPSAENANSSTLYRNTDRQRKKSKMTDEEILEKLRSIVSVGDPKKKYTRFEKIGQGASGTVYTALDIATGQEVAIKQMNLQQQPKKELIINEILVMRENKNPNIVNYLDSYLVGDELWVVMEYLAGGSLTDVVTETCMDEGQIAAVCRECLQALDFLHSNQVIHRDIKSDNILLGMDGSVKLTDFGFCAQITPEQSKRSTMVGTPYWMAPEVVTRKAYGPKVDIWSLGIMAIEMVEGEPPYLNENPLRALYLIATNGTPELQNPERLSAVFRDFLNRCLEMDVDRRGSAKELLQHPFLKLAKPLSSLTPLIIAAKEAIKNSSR

c1cc(CC2CCOCC2)n2nc(Nc3ccc4c(NC5CCOCC5)n[nH]c4c3)nc2c1 [CC-509, [3-(2H-3,4,5,6-tetrahydropyran-4-ylamino)(1H-indazol-6-yl)][5-(2H-3,4,5,6-tetrahydropyran-4-ylmethyl)(2H-1,2,4-triazolo[1,5-a]pyridin-2-yl)]amine]
remaining activity at 3 µM (CK1-alpha1_h): 88% | remaining activity at 3 µM (PhK-gamma2_h): 103% | remaining activity at 3 µM (PAK7_h): 86% | remaining activity at 3 µM (JNK2-alpha2_h): 88% | remaining activity at 3 µM (EphA4_h): 76% | remaining activity at 3 µM (BRAF V599E): 88% | remaining activity at 3 µM (Yes_h): 54% | remaining activity at 3 µM (Rsk3_h): 33% | remaining activity at 3 µM (Rsk4_h): 32% | remaining activity at 3 µM (Axl_h): 70% | remaining activity at 3 µM (PAK6_h): 91% | remaining activity at 3 µM (EphA1_h): 21% | remaining activity at 3 µM (IKK-beta_h): 99% | remaining activity at 3 µM (Hck_h): 71% | remaining activity at 3 µM (FAK_h): 43% | remaining activity at 3 µM (Aurora-A_h): 6% | remaining activity at 3 µM (Ltk_h): 71% | remaining activity at 3 µM (IRAK1_h): 20% | remaining activity at 3 µM (Gck_h): 57% | remaining activity at 3 µM (PAK3_h): 97% | remaining activity at 3 µM (LYN-A_h; 3 µM, KM ATP, read-out: % control): 54% | IC50 (LYN-A_h; 10-point dose-response, commercial vendor): 3.58 µM | remaining activity at 3 µM (BRK_h): 87% | remaining activity at 3 µM (CAMK1_h): 86% | remaining activity at 3 µM (Hgk_h): 62% | remaining activity at 3 µM (IKK1_h): 106% | remaining activity at 3 µM (JAK2-JH1-JH2_V617F_h): 8% | remaining activity at 3 µM (Plk3_h): 88% | remaining activity at 3 µM (MuSK_h): 41% | remaining activity at 3 µM (EphB1_h): 41% | remaining activity at 3 µM (PKC-delta_h): 91% | remaining activity at 3 µM (MATK_h): 102% | remaining activity at 3 µM (EGFR_L858R_h): 101% | remaining activity at 3 µM (Ron_h): 74% | remaining activity at 3 µM (EphB4_h): 87%
